{"source": "paper PMC11912748", "about": "“Image-Guided Monitoring of Mitochondria and Blood–Brain Barrier Dysfunction in Amyotrophic Lateral Sclerosis Mice” (Biomaterials Research, 2025)", "key": {"[1]": {"experiment": "Pharmacokinetics after single intravenous injection (2-compartment model)", "assay_type": "in vivo, CD-1 mice", "settings": "25 nmol i.v. in 2.5% PEG400 and 5% BSA in saline; for half-life: 25 nmol", "method": "Six-week-old CD-1 mice were used to quantify the blood clearance rate and urinary excretion. Mice were injected with 25 nmol of ALS04 or ALS05 in saline containing 2.5% PEG400 (polyethylene glycol, molecular weight 400) and 5% BSA via intravenous injection under isoflurane anesthesia, and blood was collected in heparinized capillary tubes (Fisher Scientific, Pittsburgh, PA) by tail nick before injection and at 1, 3, 5, 10, 30, 60, 120, 180, and 240 min post-injection and then stored in an icebox to prevent clotting. The supernatants of collected blood were filled into capillary microtubes (Fisher Scientific) after centrifugation. Mice were euthanized with CO2 inhalation to image organs and collect urine from the bladder 4 h post-injection. Collected urine samples were also placed into capillary microtubes. The fluorescence intensities of the microtubes were measured by NIR imaging along with a set of standard ALS04 or ALS05 samples of known concentrations to analyze the pharmacokinetics. Pharmacokinetic analysis was performed using the 2-compartment model (or biexponential decay) to estimate distribution (t1/2α) and elimination (t1/2β) blood half-life, the volume of distribution, and clearance. Results were presented as a biexponential decay curve."}, "[2]": {"test_system": "SH-SY5Y cells and fibroblast NIH3T3 cells", "experiment": "Cytotoxicity, Cell Counting Kit-8 (CCK-8)", "assay_type": "cell-based", "settings": "Homo sapiens, 0 to 20 μM, 24 h, read-out: IC50 (cell viability)", "method": "Cell viability was assessed using Cell Counting Kit-8 (CCK-8) from Dojindo Molecular Technologies Inc. (Kumamoto, Japan). Briefly, SH-SY5Y and NIH3T3 cells were seeded into 96-well plates at a density of 2,500 cells per well. The cells were then treated with 0 to 20 μM of each fluorophore in growth medium for 24 h, and 10% CCK-8 solutions were added to each well. The plates were incubated at 37 °C for 4 h, and absorbance was measured at 450 nm using a SpectraMax M5 plate reader (Molecular Devices). Cell viability (%) = (Asample − Ab)/(Ac − Ab) × 100, where Asample, Ab, and Ac denote the absorbance reading of sample, blanks, and negative control wells, respectively."}, "SH-SY5Y cells [3]": {"test_system": "SH-SY5Y cells", "experiment": "In vitro model of mitochondrial dysfunction (MPP+)", "assay_type": "cell-based, human", "settings": "MPP+ 30, 125, 500 μM for 24 h, then 1 μM for 30 min", "method": "SH-SY5Y cells were seeded into 6-well plates (Corning Costar, no. 3516) at a density of 12,000 cells/well overnight. Cells were maintained at 37 °C in a humidified atmosphere of 5% CO2. To model mitochondrial dysfunction, undifferentiated and differentiated SH-SY5Y cells were incubated with 30, 125, and 500 μM 1-methyl-4-phenylpyridinium (MPP^+; Neurotoxin agent, Cayman, no. 16958) in the medium for 24 h. The control groups for undifferentiated and differentiated SH-SY5Y cells were treated with the same medium without MPP^+. The cells were then washed with 10% FBS/HBSS. After washing, cells were incubated with 1 μM of ALS04, MitoTracker Deep Red, and NucBlue for 30 min. The cells were imaged using BioTek Cytation 5. The fluorescent intensity of each cell was measured using ImageJ."}, "SH-SY5Y cells [4]": {"test_system": "SH-SY5Y cells", "experiment": "Subcellular localization (colocalization with LysoTracker/MitoTracker)", "assay_type": "cell-based, human", "settings": "1 μM, 30 min, 37 °C", "method": "Human neuroblastoma SH-SY5Y cells [American Type Culture Collection (ATCC), Manassas, VA, USA] were cultured in a 1:1 mixture of Eagle’s minimum essential medium (EMEM; no. 30-2003, ATCC, Manassas, VA, USA) and F12K with 10% FBS and 1% penicillin-streptomycin solution. Cells were grown in a humidified atmosphere of 5% CO2 at 37 °C. The medium was replaced every 3 to 4 d, and cells were subcultured using trypsin–EDTA when 70% to 80% confluent. All media and supplements were purchased from Gibco (Gaithersburg, MD, USA). To optimize the imaging condition in this study, cells were incubated at 37 °C for 10 to 30 min in the presence of 0.1 to 1 μM of ALS04 and ALS05. After washing, the cells were imaged using BioTek Cytation 5. Fluorescence intensity was quantified using the threshold analysis method implemented in the ImageJ software. […] The cells were then washed and stained with NucBlue (2 drops/ml, Live ReadyProbes Reagent, Hoechst 33342, Invitrogen no. R37605), Lysotracker Yellow (5 μM, Invitrogen, no. L12491), and MitoTracker Deep Red (0.5 μM) (Invitrogen, no. M22426) to stain lysosome and mitochondria for 30 min as per the manufacturer’s instruction. […] Mander’s colocalization coefficients were then determined using the Costes method to choose threshold values on ImageJ [24]."}, "[5]": {"experiment": "Optical properties (absorbance, fluorescence, quantum yield) in DMSO", "assay_type": "physicochemical", "method": "MarvinSketch (ver. 23.11) and InstantJChem (ver. 23.17) calculator plug-ins (ChemAxon, Budapest, Hungary) were used to calculate in silico physicochemical property, such as molecular weight (MW), the partition and distribution coefficient (LogP and LogD at pH 7.4), surface molecular charge, hydrophobicity, the hydrogen bond acceptors/donors (HBA/HBD), the acid dissociation constant (pKa), the topological polar surface area (TPSA), and BBB score. The BBB score is determined by 5 key physicochemical descriptors, including the number of aromatic rings, the number of heavy atoms, MWHBN (a parameter derived from MW and the number of HBA/HBD), TPSA, and pKa. The final score is computed using stepwise methods for descriptors with discrete values and polynomial weight functions for descriptors with continuous ranges (ChemAxon). The absorbance and fluorescence emission spectra of ALS04 and ALS05 at varying concentrations were measured in dimethyl sulfoxide (DMSO) using HR2000 absorbance spectrometers (200 to 1,100 nm) and USB2000FL fluorescence spectrometers (350 to 1,000 nm) from Ocean Optics (Dunedin, FL). Fluorescence emission spectra were collected under NIR excitation using a 760-nm laser pointer (Opcom Inc., Xiamen, China). […] The fluorescence emission spectrum was integrated and plotted as a function of absorbance at 755 nm, and a linear fit was applied to determine the slope between fluorescence intensity and absorbance. […] A small, accurately weighed amount of each fluorophore was added to a minimal volume of solvents, and the saturated solution was then vortexed and sonicated for 5 min to ensure complete dissolution of the solids. Following this, the solution was centrifuged at 1,500g for 10 min, and the absorbance of the supernatant was measured. The solubility (g/l) was calculated by multiplying the maximum absorbance-derived concentration by the MW of each fluorophore."}}, "note": "Like-named read-outs stand apart in the source and are kept apart here."}
{"smiles": "CN1/C(=C/C2=CC3=C/C(=C/c4sc5ccccc5[n+]4C)CCC3CC2)Sc2ccccc21", "note": "(stereo not shown) [ALS04]", "values": [{"measurement": "AUC", "setting": "[1]", "value": 775.6, "unit": "nmol·min/mL"}, {"measurement": "half-life", "setting": "[1]; CD-1, mouse, plasma, iv, read-out: t1/2α (distribution blood half-life)", "value": 1.82, "unit": "min"}, {"measurement": "half-life", "setting": "[1]; CD-1, mouse, plasma, iv, read-out: t1/2β (elimination blood half-life)", "value": 79.9, "unit": "min"}, {"measurement": "clearance", "setting": "[1]; CD-1, mouse, plasma, iv, read-out: Cl (clearance)", "value": 0.067, "unit": "mL/min"}, {"measurement": "Vd", "setting": "[1]; CD-1, mouse, plasma, iv, read-out: Vd (volume of distribution)", "value": 0.00296, "unit": "L"}, {"measurement": "IC50", "setting": "[2]", "value": "~1300", "unit": "nM"}, {"measurement": "Colocalization with mitochondria after MPP+ treatment", "setting": "SH-SY5Y cells [3]", "value": "dose-dependent reduction"}, {"measurement": "Colocalization with lysosomes (colocalizing pixels)", "setting": "SH-SY5Y cells [4]; LysoTracker", "value": 8.5, "unit": "%"}, {"measurement": "Colocalization with mitochondria (colocalizing pixels)", "setting": "SH-SY5Y cells [4]; MitoTracker", "value": 71, "unit": "%"}, {"measurement": "Ext. coeff. (molar absorptivity)", "setting": "[5]", "value": "169,600 M^-1cm^-1"}, {"measurement": "Max. Abs (excitation maximum)", "setting": "[5]", "value": 751, "unit": "nm"}, {"measurement": "Max. Fl (emission maximum)", "setting": "[5]", "value": 774, "unit": "nm"}, {"measurement": "QY (quantum yield)", "setting": "[5]; ICG as reference", "value": 6.0, "unit": "%"}]}
